# According to article PMC5441875 (eLife, 2017):
# “And” between values parts separate entries of the source, which are not always exact repeats. Equal entries are not always repeated. Where two headings read alike, the source gives them in different places.
# Legend:
# [1] = UV/Vis spectra of the free PSAA photoisomers; format: physicochemical; conditions: isopropanol, 5 min irradiation at 460 nm
# Procedure: The UV/Vis spectra of the free PSAA (100 μM) were measured using a UVIKON 922 spectrophotometer (Kontron Instruments) in 1 x 1 × 4 cm quartz cuvettes. The spectra were measured at two different conditions: (i) with PSAA in the extracellular (Ringer) solution to be as close as possible to the recording conditions, and (ii) in isopropanol to mimic a hydrophobic environment (since PSAA is buried in the protein) ([Ye et al., 2009]). To induce the different photoisomers, the dissolved PSAA was directly irradiated in the cuvette at 365 nm (30 mW), 460 nm (241 mW), and 525 nm (35 mW) using a Cool LED pE-4000 illumination system. The UV spectra of the pure trans-isomer were recorded upon storage in the dark.
# [2] = test system: GluN1-F654PSAA/GluN2A receptors; test: Magnesium dose-response curves (Mg2+-DRCs), whole-cell patch-clamp; format: cell-based, rat; conditions: F654PSAA mutant
# Procedure: (§1) Receptor functionality and light-sensitivity were assessed in patch-clamp recordings of lifted whole cells 24–72 hr post transfection. Positively transfected cells were visualized by GFP-fluorescence. […] The osmolarity was 270–290 mOsm. The cells were continuously perfused with a Ringer solution containing (in mM): 140 NaCl, 2.8 KCl, 1 CaCl2, 0.01 DTPA, 10 HEPES and five sucrose (pH 7.3 with NaOH). The osmolarity was 290 mOsm. DTPA was added to prevent tonic inhibition of NMDARs by ambient zinc ([Paoletti et al., 1997]). Currents were recorded using an Axopatch 200B amplifier and a Digidata 1550A interface (Molecular Devices), sampled at 10–20 kHz, and low-pass filtered at 2–5 kHz. The cells were voltage-clamped at −60 mV. pClamp 10.5 (Molecular Devices) was used to acquire the data. All recordings were performed at room temperature.
# (§2) Agonists or other pharmacological substances were applied using a multi-barrel rapid solution exchanger system (RSC 200, Bio-Logic). […] The agonist deactivation kinetics were assessed by including the converse co-agonist to the control solution. For Mg^2+-DRCs, the concentration of DTPA, which has orders of magnitude higher affinity for Zn^2+ than Mg^2+ ([Paoletti et al., 1997]), was reduced to 1 µM to avoid excessive Mg^2+ chelation, while maintaining depletion of ambient zinc (estimated in the few hundreds of nM). Accordingly, Mg^2+ concentrations reported in the Mg^2+-DRC were not corrected and correspond to the nominal concentrations of added Mg^2+. MK-801 was applied at 1 μM to assure full inhibition of WT NMDAR-mediated currents. The positive allosteric modulator (PAM) GNE-6901 (obtained from Genentech, South San Francisco, USA) was used at a final concentration of 30 μM ([Hackos et al., 2016]).
# (§3) Computer-controlled light pulses during electrophysiological recordings were provided from sensitive high power LEDs (Prizmatix). The three following LEDs were used: Mic-LED-365 (UV, 200 mW), UHP-Mic-LED-460 (blue, 2W) and UHP-Mic-LED-520 (green, 900 mW). The LED port was directly coupled via a microscope adaptor to the fluorescence port of an inverted DIAPHOT 300 Nikon microscope. The output beams of the three Mic-LEDs were joined by a dichroic beam combiner module and the resulting light was applied to the center of the recording dish through a 10X objective (Leitz Wetzlar). The light intensity of all three LEDs was set to 100%, unless otherwise noted.
# (§4) Current traces obtained in electrophysiological recordings were transferred to Igor Pro (version 6.3) or Clampfit (version 10.5) for display and analysis. The kinetics of photoinactivation and photopotentiation were obtained by fitting currents with a single exponential function as follows: Y = A*exp(-t/τ) + C, with A as the initial current amplitude, Tau (τ) the decay time constant, and C the steady-state level. The inhibition by MK-801 was also fit with a monoexponential function. […] Accordingly, and for comparative purposes, only single exponential fits were used when studying MK-801 inhibition. Agonist DRCs were fit with the following Hill equation: Irel = 1/(1 + (EC50 / [ago])^nH), with EC50 and the Hill coefficient (nH) as free parameters. For Mg^2+-DRCs the following equation was used: Irel = 100*(1-(a/(1+[IC50]/[Mg^2+)^nH,)), where a is the maximal current inhibition by Mg^2+. IC50, a, and the Hill coefficient (nH) were set as free parameters.
# [3] = test system: GluN1-Y647PSAA/GluN2A receptors; test: as above; format: cell-based, rat; conditions: Y647PSAA mutant
# Procedure: as §1, §2, §3, §4
# [4] = target: T1, WT GluN1/GluN2A receptors (Rattus norvegicus, UniProt P35439+Q00959); test: as above; format: cell-based; set-up: expressed in transfected cells; host or cells: HEK-293 cells (ATCC), PEI transfection, pcDNA3-based vectors
# T1 sequence (Q00959 23-1464, other chains not shown): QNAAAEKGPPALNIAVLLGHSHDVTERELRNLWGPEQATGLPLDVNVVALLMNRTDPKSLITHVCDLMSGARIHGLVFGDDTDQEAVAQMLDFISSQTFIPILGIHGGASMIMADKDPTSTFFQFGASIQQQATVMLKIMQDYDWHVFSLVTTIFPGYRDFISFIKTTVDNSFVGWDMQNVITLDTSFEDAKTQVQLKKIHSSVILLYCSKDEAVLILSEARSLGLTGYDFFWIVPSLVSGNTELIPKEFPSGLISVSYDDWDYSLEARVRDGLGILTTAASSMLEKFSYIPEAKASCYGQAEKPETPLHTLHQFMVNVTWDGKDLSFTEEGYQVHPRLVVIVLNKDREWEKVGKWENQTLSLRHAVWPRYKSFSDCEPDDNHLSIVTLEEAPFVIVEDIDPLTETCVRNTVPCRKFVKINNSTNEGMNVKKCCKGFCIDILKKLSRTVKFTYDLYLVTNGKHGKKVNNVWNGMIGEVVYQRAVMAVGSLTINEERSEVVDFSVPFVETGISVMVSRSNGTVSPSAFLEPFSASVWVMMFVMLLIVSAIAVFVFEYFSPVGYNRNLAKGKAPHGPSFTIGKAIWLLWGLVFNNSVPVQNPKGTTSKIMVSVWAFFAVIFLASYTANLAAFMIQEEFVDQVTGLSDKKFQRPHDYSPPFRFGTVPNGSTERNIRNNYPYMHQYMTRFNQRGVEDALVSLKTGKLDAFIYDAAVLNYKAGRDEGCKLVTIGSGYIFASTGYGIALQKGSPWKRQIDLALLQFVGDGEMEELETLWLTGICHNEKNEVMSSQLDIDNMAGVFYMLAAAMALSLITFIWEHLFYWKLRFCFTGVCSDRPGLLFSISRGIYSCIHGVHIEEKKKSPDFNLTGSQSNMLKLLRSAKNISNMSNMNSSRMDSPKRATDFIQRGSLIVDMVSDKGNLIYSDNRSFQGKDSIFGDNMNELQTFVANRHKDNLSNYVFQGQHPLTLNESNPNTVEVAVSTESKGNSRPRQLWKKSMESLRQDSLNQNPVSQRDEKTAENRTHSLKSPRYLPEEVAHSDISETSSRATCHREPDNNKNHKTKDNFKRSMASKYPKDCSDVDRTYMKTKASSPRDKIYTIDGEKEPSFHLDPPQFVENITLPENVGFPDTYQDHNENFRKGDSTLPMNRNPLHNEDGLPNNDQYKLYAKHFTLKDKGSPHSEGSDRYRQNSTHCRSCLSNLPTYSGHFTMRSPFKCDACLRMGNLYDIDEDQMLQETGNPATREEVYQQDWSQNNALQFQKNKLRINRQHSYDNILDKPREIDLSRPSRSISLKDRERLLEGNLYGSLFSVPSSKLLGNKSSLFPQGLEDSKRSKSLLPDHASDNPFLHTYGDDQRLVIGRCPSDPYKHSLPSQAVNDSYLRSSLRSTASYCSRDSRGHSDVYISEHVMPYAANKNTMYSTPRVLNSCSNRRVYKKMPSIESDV
# Procedure: as §1, §2
# (§5) Computer-controlled light pulses during electrophysiological recordings were provided from sensitive high power LEDs (Prizmatix). […] The LED port was directly coupled via a microscope adaptor to the fluorescence port of an inverted DIAPHOT 300 Nikon microscope. […]
# [5] = test system: GluN1-P532PSAA/GluN2A receptors; test: UV-induced photoinhibition of currents in the presence of ligands (glycine concentrations, competitive antagonists, PAM); format: cell-based, rat
# Procedure: as §1, §2, §3
# [6] = target: GluN1-P532PSAA/GluN2A receptors; conditions: PSAA-mutant
# Procedure: as §1, §2
# Computer-controlled light pulses during electrophysiological recordings were provided from sensitive high power LEDs (Prizmatix).
# [7] = test system: GluN1-P532PSAA/GluN2A receptors; conditions: PSAA-mutant; for τdeact,UV (example trace) / τdeact,BLUE (example trace): single example trace; for τdeact,BLUE (example trace): blue light
# Procedure: as §1, §2, §3
# The weighted deactivation time constants were calculated with: τw =( Af/(Af+As))*τf + (As /(Af + As))*τs.
# [8] = test system: GluN1-P532PSAA/GluN2A receptors; test: MK-801 open channel block kinetics, whole-cell patch-clamp; format: cell-based, rat
# Procedure: as §1, §2, §3, §4
# [9] = test system: GluN1-F654PSAA/GluN2A receptors; test: MK-801 open channel block (kinetics and extent), whole-cell patch-clamp; format: cell-based, rat
# Procedure: as §1, §2, §3, §4
# [10] = test system: GluN1-Y647PSAA/GluN2A receptors; test: as above; format: cell-based, rat; conditions: 1 µM MK-801, Y647PSAA mutant
# Procedure: as §1, §2, §3, §4
# [11] = target: T1, WT GluN1/GluN2A receptors; test: as above; format: cell-based; set-up: expressed in transfected cells; host or cells: HEK-293 cells (ATCC), PEI transfection, pcDNA3-based vectors; conditions: 1 µM MK-801, WT
# Procedure: as §1, §2, §3, §4
# [12] = target: T1, WT GluN1/GluN2A receptors; test: Potentiation by the positive allosteric modulator GNE-6901, whole-cell patch-clamp; format: cell-based; set-up: expressed in transfected cells; host or cells: HEK-293 cells (ATCC), PEI transfection, pcDNA3-based vectors
# Procedure: as §1, §2, §5
# [13] = test system: GluN1-P532PSAA/GluN2A receptors; test: as above; format: cell-based, rat
# Procedure: as §1
# Agonists or other pharmacological substances were applied using a multi-barrel rapid solution exchanger system (RSC 200, Bio-Logic). […] The agonist deactivation kinetics were assessed by including the converse co-agonist to the control solution. […]
# as §5
# [14] = blue light, read-out: IC50 BLUE
# [15] = read-out: EC50,BLUE, blue light (460 nm)
# [16] = read-out: EC50,DARK, dark, 100 μM of the respective co-agonist
# [17] = read-out: EC50,UV, UV light (365 nm)
# [18] = 1 µM MK-801, F654PSAA mutant, UV
# [19] = 1 µM MK-801, F654PSAA mutant, dark
smiles,measurement,setting,value
C=Cc1cccc(/N=N/c2ccc(C[C@H](N)C(=O)O)cc2)c1 [PSAA],cis/trans ratio,[1],74%
[Mg+2] [Mg^2+],IC50,"[2]; UV light, read-out: IC50 UV",33.3 µM
same,IC50,[2]; [14],34.3 µM
same,IC50,"[2]; dark, read-out: IC50 DARK",30 µM
same,IC50,"[3]; UV light, read-out: IC50,UV",41.5 µM
same,IC50,"[3]; blue light, read-out: IC50,BLUE",102 µM
same,fold increase in IC50 under dark or blue light,[3]; dark or blue vs UV,2.5 fold
same,IC50,"[3]; dark, read-out: IC50,DARK",103 µM
same,IC50,"[4]; UV light, read-out: IC50 UV",35.8 µM
same,IC50,[4]; [14],32.6 µM
same,IC50,"[4]; dark, nominal Mg2+ concentrations, read-out: IC50 DARK",34.6 µM
NCC(=O)O [glycine],mean photoinhibition degree Inh1,[5]; 1 μM glycine,~95%
same,mean photoinhibition degree Inh10,[5]; 10 μM glycine,76.1 ± 2%
same,mean photoinhibition degree Inh100,[5]; 100 μM glycine,49.9 ± 2.5%
same,mean photoinhibition degree Inh1000,[5]; 1000 μM glycine,33.5 ± 2%
same,EC50,[6]; [15],1.5 µM
same,EC50,[6]; [16],1.5 µM
same,EC50,[6]; [17],10.5 µM
same,"mean weighted deactivation time constant τdeact,UV",[7]; UV,81 ± 4 ms
same,"τdeact,UV (example trace)",[7]; UV,75.4 ms
same,"τdeact,BLUE (example trace)",[7],131.3 ms
same,"mean weighted deactivation time constant τdeact,DARK",[7],111 ± 9 ms
N[C@@H](CCC(=O)O)C(=O)O [glutamate],EC50,[6]; [15],13.3 µM
same,EC50,[6]; [16],14.6 µM
same,EC50,[6]; [17],17.1 µM
same,"τdeact,UV (example trace)",[7]; UV,77.7 ms
same,"τdeact,BLUE (example trace)",[7],79.2 ms
same,"mean weighted deactivation time constant τdeact,DARK",[7],113 ± 36 ms
C[C@]12N[C@H](Cc3ccccc31)c1ccccc12 [MK-801],time constant of MK-801 inhibition τUV (example trace),"[8]; 1 µM MK-801, P532PSAA mutant, UV, example",3200 ms
same,single-exponential time constant of MK-801 inhibition τUV,"[8]; 1 µM MK-801, P532PSAA mutant, UV, mean",1820 ± 290 ms
same,time constant of MK-801 inhibition τDARK (example trace),"[8]; 1 µM MK-801, P532PSAA mutant, dark, example",470 ms
same,single-exponential time constant of MK-801 inhibition τDARK,"[8]; 1 µM MK-801, P532PSAA mutant, dark, mean",940 ± 160 ms
same,fold slower MK-801 blocking kinetics,[8]; P532PSAA mutant in dark state vs WT,~ 1.3 fold
same,fold slower MK-801 inhibition rates,[8]; P532PSAA mutant under UV exposure,~ 2 fold
same,"mean extent of block produced by MK-801, BlockUV",[9]; [18],97 ± 1%
same,time constant of MK-801 inhibition (example trace),[9]; [18],1000 ms
same,single-exponential time constant of MK-801 inhibition τUV,"[9]; 1 µM MK-801, F654PSAA mutant, UV, mean",730 ± 70 ms
same,"mean extent of block produced by MK-801, BlockDARK",[9]; [19],90 ± 3%
same,time constant of MK-801 inhibition (example trace),[9]; [19],3970 ms
same,single-exponential time constant of MK-801 inhibition τDARK,"[9]; 1 µM MK-801, F654PSAA mutant, dark, mean",3070 ± 560 ms
same,degree of MK-801 block,"[9]; F654PSAA receptors, across light conditions",≥ 90%
same,"mean extent of block produced by MK-801, BlockUV",[10]; UV,86 ± 3% and > 85%
same,time constant of MK-801 inhibition (example trace),[10]; UV,3300 ms
same,single-exponential time constant of MK-801 inhibition τUV,"[10]; UV, mean",4150 ± 910 ms
same,"mean extent of block produced by MK-801, BlockDARK",[10]; dark (trans),69 ± 5% and 69%
same,time constant of MK-801 inhibition (example trace),[10]; dark,4400 ms
same,single-exponential time constant of MK-801 inhibition τDARK,"[10]; dark, mean",5070 ± 580 ms
same,"mean extent of block produced by MK-801, BlockUV",[11]; UV,98 ± 1%
same,time constant of MK-801 inhibition (example trace),[11]; UV,700 ms
same,single-exponential time constant of MK-801 inhibition τUV,"[11]; UV, mean",620 ± 50 ms
same,single-exponential time constant of MK-801 inhibition τBLUE,"[11]; blue, mean",610 ± 90 ms
same,"mean extent of block produced by MK-801, BlockDARK",[11]; dark,97 ± 1%
same,time constant of MK-801 inhibition (example trace),[11]; dark,600 ms
same,single-exponential time constant of MK-801 inhibition τDARK,"[11]; dark, mean",690 ± 140 ms
Cc1sc2nc(COc3ccc(F)cc3)cc(=O)n2c1[C@@H]1C[C@H]1CO [GNE-6901],mean fold-potentiation by PAM,"[12]; GNE-6901 30 µM, WT",2.3 ± 0.3 fold
same,fold potentiation (example trace),"[12]; GNE-6901 30 µM, WT, example trace",2.3 fold
same,effect of PAM application,[12]; WT receptors,strongly potentiated
same,mean fold-potentiation by PAM,"[13]; GNE-6901 30 µM, PSAA mutant, cis and trans pooled",0.9 ± 0.04 fold
same,effect of PAM application,[13]; GluN1-P532PSAA mutant receptors,entirely unaffected
